Data reported in BindingDB's records for doi:10.1016/j.bmcl.2011.06.080 (Johnson & Johnson Pharmaceutical Research and Development, 2011).

Assay: Antagonist activity at CCR2 in human THP1 cells assessed as inhibition of MCP1-induced chemotaxis after 3 hrs

First: N[C@]1(c2ccccc2)CC[C@H](N2CC(NC(=O)CNC(=O)c3cccc(C(F)(F)F)c3)C2)CC1
Second: COc1ccc([C@]2(O)CC[C@@H](N3CC(NC(=O)CNC(=O)c4cccc(C(F)(F)F)c4)C3)CC2)cc1
The IC50 of the first is 2.4-fold higher: 160 nM for the first, 67 nM for the second.

First: O=C(CNC(=O)c1cccc(C(F)(F)F)c1)NC1CN([C@H]2CC[C@](O)(c3ccc4c(c3)OCO4)CC2)C1
Second: O=C(CNC(=O)c1cccc(C(F)(F)F)c1)NC1CN([C@H]2CC[C@](O)(c3ccc4c(c3)OCC4)CC2)C1
The IC50 of the first is 1.9-fold lower: 27 nM for the first, 52 nM for the second. The first is the more potent here.

Compared with `O=C(CNC(=O)c1cccc(C(F)(F)F)c1)NC1CN([C@H]2CC[C@H](c3ccncc3O)CC2)C1`, `COc1cnccc1[C@H]1CC[C@H](N2CC(NC(=O)CNC(=O)c3cccc(C(F)(F)F)c3)C2)CC1` is 2-fold lower in IC50: 57 nM for the first, 28 nM for the second.

Compared with `O=C(CNC(=O)c1cccc(C(F)(F)F)c1)NC1CN([C@H]2CC[C@H](c3ccc(O)cn3)CC2)C1`, `O=C(CNC(=O)c1cccc(C(F)(F)F)c1)NC1CN([C@H]2CC[C@H](c3ccc(O)cc3)CC2)C1` is 3-fold higher in IC50: 14 nM for the first, 42 nM for the second. The first is the more potent here.

Compared with `COc1ccc([C@H]2CC[C@H](N3CC(NC(=O)CNC(=O)c4cccc(C(F)(F)F)c4)C3)CC2)cn1`, `COc1cc([C@H]2CC[C@H](N3CC(NC(=O)CNC(=O)c4cccc(C(F)(F)F)c4)C3)CC2)ccn1` is 15-fold higher in IC50: 11 nM for the first, 170 nM for the second.

Compared with `O=C(CNC(=O)c1cccc(C(F)(F)F)c1)NC1CN([C@H]2CC[C@H](c3cccnc3)CC2)C1`, `COc1ccc([C@H]2CC[C@H](N3CC(NC(=O)CNC(=O)c4cccc(C(F)(F)F)c4)C3)CC2)cc1` is 2.1-fold lower in IC50: 52 nM for the first, 25 nM for the second.

`O=C(CNC(=O)c1cccc(C(F)(F)F)c1)NC1CN([C@H]2CC[C@H](c3ccc4nc[nH]c4c3)CC2)C1` and `O=C(CNC(=O)c1cccc(C(F)(F)F)c1)NC1CN([C@H]2CC[C@@H](c3ccc4c(c3)OCO4)CC2)C1` are within 1.5-fold of each other in IC50: 21 nM for the first, 15 nM for the second.

First: O=C(CNC(=O)c1cccc(C(F)(F)F)c1)NC1CN([C@H]2CC[C@H](c3ccc(N4CCCC4)cc3)CC2)C1
Second: O=C(CNC(=O)c1cccc(C(F)(F)F)c1)NC1CN([C@H]2CC[C@H](c3ccc(C(=O)O)cc3)CC2)C1
The IC50 of the first is 5.4-fold lower: 240 nM for the first, 1300 nM for the second. The first is the more potent here.
